# Measured values taken from ChEMBL document CHEMBL6109122 (J Med Chem, 2025).
# Calls of active or inactive are those of the source. No cut-off for these calls is given here.
# What was measured:
# [1] = target: T1, Protein cereblon/Non-receptor tyrosine-protein kinase TYK2 (Homo sapiens, UniProt P29597+Q96SW2); test: PROTAC activity at CRBN/TYK2 in human Jurkat cells assessed as induction of degradation of TYK2 at 100 nM measured after 10 hrs by Western blot analysis relative to control; format: cell-based
# Target sequence in this assay (P29597 whole entry, looked up): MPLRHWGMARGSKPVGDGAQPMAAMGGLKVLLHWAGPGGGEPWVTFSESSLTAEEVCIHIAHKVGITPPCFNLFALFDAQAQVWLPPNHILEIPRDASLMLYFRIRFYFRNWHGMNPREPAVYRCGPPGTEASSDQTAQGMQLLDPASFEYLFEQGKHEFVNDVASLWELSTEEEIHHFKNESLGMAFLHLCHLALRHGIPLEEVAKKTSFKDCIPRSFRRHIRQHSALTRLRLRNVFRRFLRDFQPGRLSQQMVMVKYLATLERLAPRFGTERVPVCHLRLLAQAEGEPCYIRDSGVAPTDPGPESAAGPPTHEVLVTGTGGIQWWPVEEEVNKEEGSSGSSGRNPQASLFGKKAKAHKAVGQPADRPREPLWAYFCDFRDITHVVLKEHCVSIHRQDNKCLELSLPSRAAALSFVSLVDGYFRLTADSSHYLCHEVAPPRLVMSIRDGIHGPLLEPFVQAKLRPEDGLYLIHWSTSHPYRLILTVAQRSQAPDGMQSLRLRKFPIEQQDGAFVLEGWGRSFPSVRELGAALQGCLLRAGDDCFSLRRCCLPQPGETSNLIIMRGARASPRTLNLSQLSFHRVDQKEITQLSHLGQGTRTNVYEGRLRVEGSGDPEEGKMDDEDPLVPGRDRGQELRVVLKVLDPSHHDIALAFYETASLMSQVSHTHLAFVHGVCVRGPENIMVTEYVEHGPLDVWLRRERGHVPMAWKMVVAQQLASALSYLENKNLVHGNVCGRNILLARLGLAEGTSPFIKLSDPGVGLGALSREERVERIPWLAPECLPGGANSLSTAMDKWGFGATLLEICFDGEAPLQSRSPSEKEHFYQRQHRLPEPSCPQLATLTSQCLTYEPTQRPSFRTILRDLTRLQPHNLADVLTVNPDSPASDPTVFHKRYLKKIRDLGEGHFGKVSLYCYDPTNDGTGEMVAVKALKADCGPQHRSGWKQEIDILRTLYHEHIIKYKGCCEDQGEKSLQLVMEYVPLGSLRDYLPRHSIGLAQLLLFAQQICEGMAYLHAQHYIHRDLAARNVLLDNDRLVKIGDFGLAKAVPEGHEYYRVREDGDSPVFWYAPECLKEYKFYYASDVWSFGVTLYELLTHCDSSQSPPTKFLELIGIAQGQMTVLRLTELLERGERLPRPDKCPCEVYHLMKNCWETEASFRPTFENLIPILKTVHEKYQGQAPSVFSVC
# Target sequence in this assay (Q96SW2 whole entry, looked up): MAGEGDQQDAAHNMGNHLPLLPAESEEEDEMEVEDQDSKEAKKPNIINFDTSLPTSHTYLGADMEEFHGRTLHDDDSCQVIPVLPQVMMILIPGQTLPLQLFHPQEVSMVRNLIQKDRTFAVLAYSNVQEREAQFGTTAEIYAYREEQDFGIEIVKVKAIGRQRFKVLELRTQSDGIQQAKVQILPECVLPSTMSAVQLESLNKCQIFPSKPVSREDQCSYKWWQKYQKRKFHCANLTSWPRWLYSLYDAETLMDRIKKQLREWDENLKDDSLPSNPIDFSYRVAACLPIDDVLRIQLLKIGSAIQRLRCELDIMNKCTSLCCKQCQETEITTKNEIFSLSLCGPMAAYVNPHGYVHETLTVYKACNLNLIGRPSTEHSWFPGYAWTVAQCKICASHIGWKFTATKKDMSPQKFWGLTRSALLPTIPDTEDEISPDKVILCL
# [2] = target: T1, Protein cereblon/Non-receptor tyrosine-protein kinase TYK2; test: PROTAC activity at CRBN/TYK2 in human Jurkat cells assessed as induction of degradation of TYK2 at 1 nM measured after 10 hrs by Western blot analysis relative to control; format: cell-based
# Target sequence in this assay (P29597 whole entry, looked up): as the sequence (P29597 whole entry, looked up) above
# Target sequence in this assay (Q96SW2 whole entry, looked up): as the sequence (Q96SW2 whole entry, looked up) above
# [3] = target: T1, Protein cereblon/Non-receptor tyrosine-protein kinase TYK2; test: PROTAC activity at CRBN/TYK2 in human Jurkat cells assessed as induction of degradation of TYK2 measured after 10 hrs by Western blot analysis; format: cell-based
# Target sequence in this assay (P29597 whole entry): as the sequence (P29597 whole entry, looked up) above
# Target sequence in this assay (Q96SW2 whole entry): as the sequence (Q96SW2 whole entry, looked up) above
# [4] = target: T1, Protein cereblon/Non-receptor tyrosine-protein kinase TYK2; test: PROTAC activity at CRBN/TYK2 in human HaCaT cells assessed as induction of degradation of TYK2 measured after 10 hrs by Western blot analysis; format: cell-based; conditions: dose 1-100 nM
# Target sequence in this assay (P29597 whole entry, looked up): as the sequence (P29597 whole entry, looked up) above
# Target sequence in this assay (Q96SW2 whole entry, looked up): as the sequence (Q96SW2 whole entry, looked up) above
# Jurkat [5] = test: Downregulation of JAK3 protein level in human Jurkat cells at 1 to 100 nM measured after 10 hrs by Western blot analysis; format: functional, cell-based; conditions: dose 1-100 nM
# Jurkat [6] = test: Downregulation of TYK2 protein level in human Jurkat cells at 1 to 100 nM measured after 10 hrs by Western blot analysis; format: functional, cell-based; conditions: dose 1-100 nM
# Jurkat [7] = test: Downregulation of TYK2 protein level in human Jurkat cells at 30 nM measured after 4 hrs by DIA-Based Proteomic analysis; format: functional, cell-based
# Jurkat [8] = test: Effect on JAK1 protein level in human Jurkat cells at 30 nM measured after 4 hrs by DIA-Based Proteomic analysis; format: functional, cell-based
# Jurkat [9] = test: Downregulation of Aiolos level in human Jurkat cells at 30 nM measured after 4 hrs by DIA-Based Proteomic analysis; format: functional, cell-based
# [10] = target: T2, Non-receptor tyrosine-protein kinase TYK2 (Homo sapiens, UniProt P29597); test: Binding affinity to TYK2 JH1 domain (unknown origin) by ADP-glo kinase assay
# [11] = target: Tyrosine-protein kinase JAK1 (Homo sapiens, UniProt P23458); test: Binding affinity to JAK1 (unknown origin) by ADP-glo kinase assay
# [12] = target: T2, Non-receptor tyrosine-protein kinase TYK2; test: Displacement of fluorophore-labeled probe from TYK2 JH2 domain (unknown origin) by HTRF assay
# [13] = Inhibition of TYK2 dependent STAT3 phosphorylation in IL-6 stimulated human PBMC cells preincubated for 60 mins followed by IL-6 stimulation and measured after 60 mins by FACS assay; format: cell-based
# [14] = Selectivity ratio of IC50 for displacement of fluorophore-labeled probe from JAK2 JH2 domain (unknown origin) to IC50 for displacement of fluorophore-labeled probe from TYK2 JH2 domain (unknown origin)
# [15] = target: T1, Protein cereblon/Non-receptor tyrosine-protein kinase TYK2; test: PROTAC activity at CRBN/TYK2 in human Jurkat cells assessed as induction of degradation of TYK2 at 10 nM measured after 4 hrs by Western blot analysis; format: cell-based
# Target sequence in this assay (P29597 whole entry, looked up): as the sequence (P29597 whole entry, looked up) above
# Target sequence in this assay (Q96SW2 whole entry, looked up): as the sequence (Q96SW2 whole entry, looked up) above
# [16] = target: T1, Protein cereblon/Non-receptor tyrosine-protein kinase TYK2; test: PROTAC activity at CRBN/TYK2 in human Jurkat cells assessed as induction of degradation of TYK2 at 10 nM preincubated with MG132 for 2 hrs followed by compound addition and measured after 10 hrs by Western blot analysis; format: cell-based
# Target sequence in this assay (P29597 whole entry, looked up): as the sequence (P29597 whole entry, looked up) above
# Target sequence in this assay (Q96SW2 whole entry, looked up): as the sequence (Q96SW2 whole entry, looked up) above
# [17] = target: T1, Protein cereblon/Non-receptor tyrosine-protein kinase TYK2; test: PROTAC activity at CRBN/TYK2 in human Jurkat cells assessed as induction of degradation of TYK2 at 10 nM preincubated with thalidomide for 2 hrs followed by compound addition and measured after 10 hrs by Western blot analysis; format: cell-based
# Target sequence in this assay (P29597 whole entry, looked up): as the sequence (P29597 whole entry, looked up) above
# Target sequence in this assay (Q96SW2 whole entry, looked up): as the sequence (Q96SW2 whole entry, looked up) above
# [18] = target: T1, Protein cereblon/Non-receptor tyrosine-protein kinase TYK2; test: PROTAC activity at CRBN/TYK2 in human Jurkat cells assessed as induction of degradation of TYK2 at 10 nM preincubated with deucravacitinib for 2 hrs followed by compound addition and measured after 10 hrs by Western blot analysis; format: cell-based
# [19] = target: T1, Protein cereblon/Non-receptor tyrosine-protein kinase TYK2; test: PROTAC activity at CRBN/TYK2 in human Jurkat cells assessed as induction of degradation of TYK2 at 10 nM preincubated with bortezomib for 2 hrs followed by compound addition and measured after 10 hrs by Western blot analysis; format: cell-based
# [20] = target: T1, Protein cereblon/Non-receptor tyrosine-protein kinase TYK2; test: PROTAC activity at CRBN/TYK2 in human Jurkat cells assessed as induction of degradation of TYK2 at 10 nM preincubated with MLN4924 for 2 hrs followed by compound addition and measured after 10 hrs by Western blot analysis; format: cell-based
# [21] = target: T1, Protein cereblon/Non-receptor tyrosine-protein kinase TYK2; test: PROTAC activity at CRBN/TYK2 in human Jurkat cells assessed as induction of degradation of TYK2 at 10 nM preincubated with cycloheximide for 2 hrs followed by compound addition and measured after 10 hrs by Western blot analysis; format: cell-based
# [22] = Half life in male ICR mouse at 5 mg/kg, ip measured up to 24 hrs by LC-MS/MS analysis; format: ADME, organism-based; conditions: in vivo
# [23] = Cmax in male ICR mouse at 5 mg/kg, ip measured up to 24 hrs by LC-MS/MS analysis; format: ADME, organism-based; conditions: in vivo
# [24] = AUC (0 to t) in male ICR mouse at 5 mg/kg, ip measured up to 24 hrs by LC-MS/MS analysis; format: ADME, organism-based; conditions: in vivo
# [25] = AUC (0 to infinity) in male ICR mouse at 5 mg/kg, ip measured up to 24 hrs by LC-MS/MS analysis; format: ADME, organism-based; conditions: in vivo
# [26] = MRT (0 to t) in male ICR mouse at 5 mg/kg, ip measured up to 24 hrs by LC-MS/MS analysis; format: ADME, organism-based; conditions: in vivo
# [27] = MRT (0 to infinity) in male ICR mouse at 5 mg/kg, ip measured up to 24 hrs by LC-MS/MS analysis; format: ADME, organism-based; conditions: in vivo
# Mus musculus [28] = test: Anti-inflammatory activity in imiquimod-induced female BALB/c mouse psoriasis model assessed as reduction in psoriasis area severity index at 5 mg/kg, ip administered daily topically for 6 days; format: functional, organism-based; conditions: time 6.0 day
# Mus musculus [29] = test: Anti-inflammatory activity in imiquimod-induced female BALB/c mouse psoriasis model assessed as reduction in micro abscess at 5 mg/kg, ip administered daily topically for 6 days by H and E staining based analysis; format: functional, organism-based; conditions: time 6.0 day
# Mus musculus [30] = test: Anti-inflammatory activity in imiquimod-induced female BALB/c mouse psoriasis model assessed as reduction in hyperkeratosis at 5 mg/kg, ip administered daily topically for 6 days by H and E staining based analysis; format: functional, organism-based; conditions: time 6.0 day
# Mus musculus [31] = test: Anti-inflammatory activity in imiquimod-induced female BALB/c mouse psoriasis model assessed as reduction in concomitant splenomegaly at 5 mg/kg, ip administered daily topically for 6 days; format: functional, organism-based; conditions: time 6.0 day
# Mus musculus [32] = species: Mus musculus; test: Anti-inflammatory activity in imiquimod-induced female BALB/c mouse psoriasis model assessed as reduction in TYK2 protein expression by Immunohistochemical analysis; format: functional, organism-based
# Mus musculus [33] = species: Mus musculus; test: Anti-inflammatory activity in imiquimod-induced female BALB/c mouse psoriasis model assessed as reduction in IL-17 expression in serum by ELISA method; format: functional, organism-based
# Mus musculus [34] = species: Mus musculus; test: Anti-inflammatory activity in imiquimod-induced female BALB/c mouse psoriasis model assessed as reduction in IL-23 expression in serum by ELISA method; format: functional, organism-based
# Mus musculus [35] = test: Anti-inflammatory activity in imiquimod-induced female BALB/c mouse psoriasis model assessed as reduction in IL-17 expression in skin at 15 mg/kg, ip administered daily topically for 6 days by ELISA method; format: functional, organism-based; conditions: time 6.0 day
# Mus musculus [36] = test: Anti-inflammatory activity in imiquimod-induced female BALB/c mouse psoriasis model assessed as reduction in IL-23 expression in skin at 15 mg/kg, ip administered daily topically for 6 days by ELISA method; format: functional, organism-based; conditions: time 6.0 day
# T2 sequence (P29597 whole entry, the tested form may be a part): as the sequence (P29597 whole entry, looked up) above
# Tyrosine-protein kinase JAK1, sequence (P23458 whole entry, the tested form may be a part): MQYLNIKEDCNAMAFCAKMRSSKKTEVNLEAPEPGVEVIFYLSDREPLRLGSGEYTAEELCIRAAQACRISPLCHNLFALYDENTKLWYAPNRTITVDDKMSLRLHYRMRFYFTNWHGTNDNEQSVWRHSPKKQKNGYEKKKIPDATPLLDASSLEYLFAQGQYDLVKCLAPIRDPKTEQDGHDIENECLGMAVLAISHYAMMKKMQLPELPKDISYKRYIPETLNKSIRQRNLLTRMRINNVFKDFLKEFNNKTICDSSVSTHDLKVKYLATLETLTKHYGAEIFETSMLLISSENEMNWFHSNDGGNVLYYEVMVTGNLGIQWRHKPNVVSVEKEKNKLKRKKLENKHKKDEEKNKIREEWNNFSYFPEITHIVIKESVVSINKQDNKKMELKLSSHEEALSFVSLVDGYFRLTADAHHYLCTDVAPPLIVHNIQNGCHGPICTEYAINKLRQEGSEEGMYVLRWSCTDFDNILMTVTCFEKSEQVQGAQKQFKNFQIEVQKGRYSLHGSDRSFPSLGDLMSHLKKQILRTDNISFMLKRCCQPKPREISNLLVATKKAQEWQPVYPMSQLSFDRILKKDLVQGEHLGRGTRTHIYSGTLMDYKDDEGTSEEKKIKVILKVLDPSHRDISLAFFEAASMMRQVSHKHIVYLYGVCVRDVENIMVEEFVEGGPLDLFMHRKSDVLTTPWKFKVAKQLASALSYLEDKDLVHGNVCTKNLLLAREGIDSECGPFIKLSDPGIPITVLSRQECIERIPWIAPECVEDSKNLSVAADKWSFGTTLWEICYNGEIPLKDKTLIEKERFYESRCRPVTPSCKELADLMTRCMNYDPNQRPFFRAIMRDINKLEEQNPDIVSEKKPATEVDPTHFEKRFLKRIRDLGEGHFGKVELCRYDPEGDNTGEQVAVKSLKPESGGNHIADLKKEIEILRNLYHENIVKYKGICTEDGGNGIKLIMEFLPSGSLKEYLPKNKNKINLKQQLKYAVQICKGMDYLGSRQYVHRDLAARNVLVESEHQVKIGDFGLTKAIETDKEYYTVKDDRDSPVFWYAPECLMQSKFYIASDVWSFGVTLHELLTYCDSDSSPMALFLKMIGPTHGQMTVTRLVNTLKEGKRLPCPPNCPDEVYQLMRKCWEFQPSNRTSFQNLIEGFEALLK
compound,measurement,setting,value
CNC(=O)c1cnc(Nc2ccc(C(=O)NC3CCC(Nc4ccc5c(c4)C(=O)N(C4CCC(=O)NC4=O)C5=O)CC3)cn2)cc1Nc1cccc(-c2ncc(F)cn2)c1OC (stereo unspecified),Activity,[1],90%
same,Activity,[2],63%
same,DC50,[3],0.42 nM
same,Activity,[4],Dose-dependent-effect
same,Activity,Jurkat [5],Active
same,Activity,Jurkat [6],Active
same,Activity,Jurkat [7],Active
same,Activity,Jurkat [8],inactive
same,Activity,Jurkat [9],inactive
same,IC50,[10],> 10000 nM
same,IC50,[11],> 10000 nM
same,IC50,[12],1.2 nM
same,IC50,[13],> 10000 nM
same,Ratio IC50,[14],> 80
same,Activity,[15],Active
same,Activity,[16],inactive
same,Activity,[17],inactive
same,Activity,[18],inactive
same,Activity,[19],inactive
same,Activity,[20],inactive
same,Activity,[21],Active
same,half-life,[22],2.7 h
same,Cmax,[23],1300 ng/mL
same,AUC(0-t) at 24 h,[24],4770 ng·h/mL
same,AUC(0-inf),[25],4780 ng·h/mL
same,MRT last at 24 h,[26],4.1 h
same,MRT inf,[27],4.2 h
same,Activity,Mus musculus [28],Active
same,Activity,Mus musculus [29],Active
same,Activity,Mus musculus [30],Active
same,Activity,Mus musculus [31],Active
same,Activity,Mus musculus [32],Active
same,Activity,Mus musculus [33],Active
same,Activity,Mus musculus [34],Active
same,Activity,Mus musculus [35],Active
same,Activity,Mus musculus [36],Active
